Here are results for 17 molecules from patent US11406709B2, “Therapeutic and research application of PDCL3” (TRUSTEES OF BOSTON UNIVERSITY, priority 2014, dated 2022).

Counter-ions that a name gives are not always drawn. Residues, ends and D or L forms follow the SMILES beside them. *: point of attachment. Cbz = O=C(OCc1ccccc1)*

The first test concerns the target T1, PDCL3 (Homo sapiens, UniProt Q9H2J4).
T1 sequence (Q9H2J4 1-239): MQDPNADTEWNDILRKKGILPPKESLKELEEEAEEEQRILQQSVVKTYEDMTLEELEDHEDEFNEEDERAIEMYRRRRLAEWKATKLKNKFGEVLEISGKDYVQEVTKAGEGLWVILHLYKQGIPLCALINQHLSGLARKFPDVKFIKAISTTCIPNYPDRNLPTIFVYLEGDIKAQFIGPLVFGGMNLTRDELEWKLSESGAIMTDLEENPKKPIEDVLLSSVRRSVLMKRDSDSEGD
Kind of test: High throughput screening of LOPAC1280 for small molecule inhibitors of PDCL3. The following applies: LOPAC1280, 1,280 pharmacologically active compounds.
Description: (§1) Given that PDCL3 plays a fundamental role in maturation and folding of receptor tyrosine kinases (RTKs), such as VEGFR-2, and considering that activity of these RTKs are cornerstone of tumor growth and metastasis, it was decided to screen for small molecule inhibitors that could antagonize PDCL3 function in tumor cells. LOPAC1280 (a library of Pharmacologically Active Compounds), which is a collection of 1,280 pharmacologically active compounds, was used. The library is most commonly used to validate new drug discovery assays and characterize orphan targets. 16 lead compounds were identified as PDCL3 inhibitors and their potency and efficacy in inhibition of PDCL3 was validated. The structures of these 16 lead compounds, namely, Reserpine, DAPH, AC-93253 iodide, Emodin, Sunitinib malate, GW2974, Urapidil Hydrochloride, Mecamylamine hydrochloride, (−)-MK-801 hydrogen maleate, AGK2, Tyrphostin AG 112, Tyrphostin 23, Tyrphostin 51, I-Ome-Tyrophostin AG 538, and Isoliquiritgenin are provided herein at FIG. 14B.
as §1, with “validated. […] Chemical formulas for” for “validated. The structures of”, “these compounds” for “these 16 lead compounds, namely, Reserpine, DAPH, AC-93253 iodide, Emodin, Sunitinib malate, GW2974, Urapidil Hydrochloride, Mecamylamine hydrochloride, (−)-MK-801 hydrogen maleate, AGK2, Tyrphostin AG 112, Tyrphostin 23, Tyrphostin 51, I-Ome-Tyrophostin AG 538, and Isoliquiritgenin”, “herein in” for “herein at”
For the molecule `Cc1cc(O)c2c(c1)C(=O)c1cc(O)cc(O)c1C2=O` [Emodin, 1,3,8-Trihydroxy-6-methyl-9,10-anthraquinone], the “identified as PDCL3 inhibitor / specifically targeting PDCL3” value was “identified as specifically targeting PDCL3”.

Turning to `CCN(CC)CCNC(=O)c1c(C)[nH]c(/C=C2\C(=O)Nc3ccc(F)cc32)c1C.O=C(O)C[C@H](O)C(=O)O` [Sunitinib malate, (2S)-2-Hydroxysuccinic acid-N-[2-(diethylamino)ethyl]-5-[(Z)-(5-fluoro-2-oxo-1,2-dihydro-3H-indol-3-ylidene)methyl]-2,4-dimethyl-1H-pyrrole-3-carboxamide (1:1)], the “identified as PDCL3 inhibitor / specifically targeting PDCL3” value is “identified as specifically targeting PDCL3”. Consider `CNC1(C)C2CCC(C2)C1(C)C.Cl` (centres unmarked) [Mecamylamine hydrochloride, N,2,3,3-Tetramethylbicyclo[2.2.1]heptan-2-amine hydrochloride (1:1)], for which the “identified as PDCL3 inhibitor / specifically targeting PDCL3” value is “identified as specifically targeting PDCL3”. Regarding `N#C/C(=C\c1ccc(-c2cc(Cl)ccc2Cl)o1)C(=O)Nc1cccc2ncccc12` [AGK2, (2E)-2-Cyano-3-[5-(2,5-dichlorophenyl)-2-furyl]-N-(5-quinolinyl)acrylamide], the “identified as PDCL3 inhibitor / specifically targeting PDCL3” value was “identified as specifically targeting PDCL3”. Still for that read-out and setting: the same measure for `N#CC(C#N)=Cc1ccc(O)c(O)c1` [Tyrphostin 23, (3,4-Dihydroxybenzylidene)malononitrile]: “identified as specifically targeting PDCL3”. Consider `CC12NC(Cc3ccccc31)c1ccccc12.O=C(O)/C=C/C(=O)O` (single isomer, unassigned; (-)) [(−)-MK-801 hydrogen maleate, 1-Methyl-16-azatetracyclo[7.6.1.02,7.010,15]hexadeca-2,4,6,10,12,14-hexaene (2E)-2-butenedioate (1:1)], for which the “identified as PDCL3 inhibitor / specifically targeting PDCL3” value is “identified as specifically targeting PDCL3”. Still for that read-out and setting: to `COc1ccccc1N1CCN(CCCNc2cc(=O)n(C)c(=O)n2C)CC1` [Urapidil Hydrochloride, 6-({3-[4-(2-Methoxyphenyl)-1-piperazinyl]propyl}amino)-1,3-dimethyl-2,4(1H,3H)-pyrimidinedione] belongs “identified as specifically targeting PDCL3”; to `COc1cc(C=C(C#N)C(=O)c2ccc(O)c(O)c2)cc(I)c1O` [I-Ome-Tyrophostin AG 538, α-Cyano-(3-methoxy-4-hydroxy-5-iodocinnamoyl)-(3′,4′-dihydroxyphenyl)ketone], “identified as specifically targeting PDCL3”. On the same count and under the same terms, to `O=C1NC(=O)c2cc(Nc3ccccc3)c(Nc3ccccc3)cc21` [DAPH, 5,6-Dianilino-1H-isoindole-1,3(2H)-dione] belongs “identified as specifically targeting PDCL3”; to `COC(=O)[C@H]1[C@H]2C[C@@H]3c4[nH]c5cc(OC)ccc5c4CCN3C[C@H]2C[C@@H](OC(=O)c2cc(OC)c(OC)c(OC)c2)[C@@H]1OC` [Reserpine, Methyl (3β,16β,17α,18β,20α)-11,17-dimethoxy-18-[(3,4,5-trimethoxybenzoyl)oxy]yohimban-16-carboxylate], “identified as specifically targeting PDCL3”; to `CC[n+]1c(/C=C/C=C2/N(C)c3ccccc3C2(C)C)sc2ccccc21.[I-]` [AC-93253 iodide, 3-Ethyl-2-[(1E,3E)-3-(1,3,3-trimethyl-1,3-dihydro-2H-indol-2-ylidene)-1-propen-1-yl]-1,3-benzothiazol-3-ium iodide], “identified as specifically targeting PDCL3”.

For the molecule `N#CC(C#N)=C(N)/C(C#N)=C/c1cc(O)c(O)c(O)c1` [Tyrphostin 51, (3Z)-2-Amino-4-(3,4,5-trihydroxyphenyl)-1,3-butadiene-1,1,3-tricarbonitrile], the “identified as PDCL3 inhibitor / specifically targeting PDCL3” value is reported as “identified as specifically targeting PDCL3”. Same read-out and setting: to `N#CC(C#N)=C(N)/C(C#N)=C/c1ccc(O)cc1` [Tyrphostin AG 112, (3Z)-2-Amino-4-(4-hydroxyphenyl)-1,3-butadiene-1,1,3-tricarbonitrile] belongs “identified as specifically targeting PDCL3”; to `CN(C)c1cc2c(Nc3ccc4c(cnn4Cc4ccccc4)c3)ncnc2cn1` [GW2974, N4-(1-Benzyl-1H-indazol-5-yl)-N6,N6-dimethylpyrido[3,4-d]pyrimidine-4,6-diamine], “identified as specifically targeting PDCL3”; to `O=C(/C=C/c1ccc(O)cc1)c1ccc(O)cc1O` [Isoliquiritgenin, (E)-1-(2,4-dihydroxyphenyl)-3-(4-hydroxyphenyl)prop-2-en-1-one], “identified as specifically targeting PDCL3”.

Another test has as its system VEGFR-2. Kind of test: In vitro transcription/translation of VEGFR-2.
Details: not given
It counts as biochemical. As to the method:
FIG. 1A. HEK-293 cells expressing VEGFR-2 were transfected with different concentrations of C-terminus Myc-tagged PDCL3. After 48 hours cells were lysed and whole cell lysates (WCL) were blotted for VEGFR-2, PDCL3 and Hsp70 for loading control. Quantification of premature (newly synthesized and partially glycosylated VEGFR-2 corresponding to lower molecular weight) and mature (fully glycosylated) forms of VEGFR-2 is shown. Mean results of three independent experiments are shown. *P=0.04 and […]. FIG. 1B. Human umbilical vein endothelial cells (HUVECs) were transfected with control siRNA or PDCL3-siRNA. After 48 hours cells serum-starved for overnight followed by stimulation with VEGF for 10 minutes. Cells were lysed and whole cell lysates were blotted for phospho-Y1054-VEGFR-2, total VEGFR-2, PDCL3 and Hsp70 for loading control. FIG. 1C. Thermo-induced aggregation of VEGFR-2 was measured using PSA dye as described in the materials and method section. FIG. 1D. In vitro transcription/translation of VEGFR-2 in the absence or presence of exogenous recombinant PDCL3 was performed as described in the materials and method section and schematic of the procedure is shown. FIG. 1E. In vitro translated VEGFR-2 protein in the absence or presence of exogenous recombinant PDCL3 was blotted for VEGFR-2. FIG. 1F. […]
With `CC(C)C[C@@H](C=O)NC(=O)[C@H](CC(C)C)NC(=O)[C@H](CC(C)C)NC(=O)OCc1ccccc1` [MG132] (Cbz-Leu-Leu-Leu-aldehyde), the “yield of in vitro translated VEGFR-2” value is “this effect of PDCL3 was further augmented”.

A further test relates to VEGFR-2. Kind of test: Cycloheximide-chase / VEGF-induced downregulation of VEGFR-2. It counts as cell-based. Conditions: PAE cells, cycloheximide 20 μg/ml, 90 min. How it is done: FIG. 2A. Illustrated is the schematic of treatment of cells with cycloheximide (CHX) and VEGF. PAE cells co-expressing VEGFR-2 with empty vector (pMSCV) or PDCL3 were incubated with CHX for 90 minutes followed by stimulation with VEGF for indicated times. Whole cell lysates was blotted for VEGFR-2 and loading control protein, PLCγ1. FIG. 2B. Shown are the quantification of the half-life of mature VEGFR-2 and pre-mature VEGFR-2 based on the VEGFR-2 blot from the panel FIG. 2A. FIGS. 2C-2D. PAE cells co-expressing VEGFR-2 with empty vector (pMSCV) or PDCL3 were stimulated with VEGF for indicated times and whole cell lysates were processed as panel FIG. 2A.
PAE cells expressing VEGFR-2 alone or together with PDCL3 were serum-starved for overnight followed by incubation of cells with serum-free DMEM medium containing cycloheximide (20 μg/ml, 90 min). Cells then were stimulated with VEGF for various times to downregulate cell surface VEGFR-2. Cells were lysed and whole cell lysates was blotted for VEGFR-2 using anti-VEGFR-2 antibody. For measuring half-life of PDCL3 and HA-tagged mutant PDCL3, cells were incubated with serum-free DMEM medium containing cycloheximide (20 μg/ml) for indicated times and cells were lysed and whole cell lysates was blotted for PDCL3.
`C[C@@H]1C[C@@H]([C@H](O)CC2CC(=O)NC(=O)C2)C(=O)[C@@H](C)C1` [Cycloheximide]: the VEGFR-2 protein synthesis entry is “inhibited VEGFR-2 protein synthesis”.
